Experiments:
[1] = target: beta3 adrenergic receptor (Homo sapiens, UniProt P13945); experiment: Displacement of [3H]-CGP12177 from recombinant human beta3 adrenergic receptor expressed in HEK Flp-In cell membranes at 10 uM measured after 90 mins by microbeta scintillation counting method relative to control; settings: probe [3H]-CGP12177
5HT7A receptor = 5HT7A receptor (Homo sapiens, UniProt P34969); experiment: Displacement of [3H]-LSD from recombinant human 5HT7A receptor stably expressed in HEK cell membranes at 10 uM measured after 90 mins by microbeta scintillation counting method relative to control; settings: probe [3H]-LSD
5HT2A receptor = 5HT2A receptor (Homo sapiens, UniProt P28223); experiment: Displacement of [3H]-Ketanserin from 5HT2A receptor (unknown origin) at 10 uM measured after 90 mins by microbeta scintillation counting method relative to control; settings: probe [3H]-Ketanserin
[2] = target: delta opioid receptor (DOR) (Homo sapiens, UniProt P41143); experiment: Displacement of [3H]-DADLE from recombinant human DOR stably expressed in HEK cell membranes at 10 uM measured after 90 mins by microbeta scintillation counting method relative to control; settings: HEK cell membranes stably expressing recombinant human DOR, probe [3H]-DADLE
[3] = target: Sodium-dependent serotonin transporter (Homo sapiens, UniProt P31645); experiment: Displacement of [3H]-citalopram from human SERT receptor expressed in stable HEK cell membranes after 90 mins by microbeta scintillation counting method
[4] = target: Beta-1 adrenergic receptor (Homo sapiens, UniProt P08588); experiment: Displacement of [125I]-pindolol from recombinant human beta1 adrenergic receptor expressed in CHO Flp-In cell membranes at 10 uM measured after 90 mins by microbeta scintillation counting method relative to control; settings: probe [125I]-pindolol
dopamine D1 receptor = dopamine D1 receptor (Homo sapiens, UniProt P21728); experiment: in vitro; settings: probe [3H]-SCH23390
[5] = target: T1, Alpha-1B adrenergic receptor (Homo sapiens, UniProt P35368); experiment: Displacement of [3H]-prazosin from recombinant human alpha1B adrenergic receptor transiently expressed in HEKT cell membranes at 10 uM measured after 90 mins by microbeta scintillation counting method relative to control; settings: probe [3H]-prazosin
T1 sequence (P35368 whole entry): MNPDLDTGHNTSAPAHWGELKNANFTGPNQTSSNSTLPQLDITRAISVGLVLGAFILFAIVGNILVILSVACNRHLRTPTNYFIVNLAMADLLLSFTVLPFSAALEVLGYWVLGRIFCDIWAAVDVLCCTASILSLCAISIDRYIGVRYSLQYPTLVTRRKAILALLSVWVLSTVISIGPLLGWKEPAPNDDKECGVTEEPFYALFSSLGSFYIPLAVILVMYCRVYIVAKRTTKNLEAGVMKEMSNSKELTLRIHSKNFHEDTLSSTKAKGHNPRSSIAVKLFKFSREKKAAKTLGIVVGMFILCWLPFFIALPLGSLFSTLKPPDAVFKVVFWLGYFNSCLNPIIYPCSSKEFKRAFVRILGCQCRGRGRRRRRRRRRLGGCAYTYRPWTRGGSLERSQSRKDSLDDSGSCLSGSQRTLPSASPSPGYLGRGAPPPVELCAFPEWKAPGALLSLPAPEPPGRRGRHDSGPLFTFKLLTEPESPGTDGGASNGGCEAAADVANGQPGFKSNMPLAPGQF

[6] = target: Sodium-dependent noradrenaline transporter (Homo sapiens, UniProt P23975); experiment: Displacement of [3H]-Nisoxetine from human NET receptor expressed in stable HEK cell membranes after 90 mins by microbeta scintillation counting method
[7] = target: 5-hydroxytryptamine receptor 1A (Homo sapiens, UniProt P08908); experiment: Displacement of [3H]-Way100635 from recombinant human 5HT1A receptor stably expressed in CHO cell membranes measured after 90 mins by microbeta scintillation counting method
Mu-type opioid receptor = Mu-type opioid receptor (Homo sapiens, UniProt P35372); experiment: Displacement of [3H]-DAMGO from recombinant human MOR stably expressed in HEK cell membranes measured after 90 mins by microbeta scintillation counting method
5HT2B receptor = 5HT2B receptor (Homo sapiens, UniProt P41595); experiment: Displacement of [3H]-LSD from recombinant human 5HT2B receptor stably expressed in HEK cell membranes at 10 uM measured after 90 mins by microbeta scintillation counting method relative to control; settings: probe [3H]-LSD
Histamine H2 receptor = Histamine H2 receptor (Homo sapiens, UniProt P25021); experiment: Displacement of [125I]-Iodo-aminopotentidine from human histamine H2 receptor expressed in stable HEK cell membranes at 10 uM after 90 mins by microbeta scintillation counting method relative to control; settings: probe [125I]-Iodo-aminopotentidine
sigma 2 receptor = sigma 2 receptor (Homo sapiens, UniProt Q5BJF2); experiment: Displacement of [3H]-DTG from sigma 2 receptor (unknown origin) at 10 uM measured after 90 mins by microbeta counting analysis relative to control; settings: probe [3H]-DTG
dopamine D2 receptor = dopamine D2 receptor (Homo sapiens, UniProt P14416); experiment: Displacement of [3H]-N-methylspiperone from recombinant human D2 receptor stably expressed in fibroblast cell membranes at 10 uM measured after 90 mins by microbeta scintillation counting method relative to control; settings: probe [3H]-N-methylspiperone
5HT1E receptor = 5HT1E receptor (Homo sapiens, UniProt P28566); experiment: Displacement of [3H]5-HT from recombinant human 5HT1E receptor stably expressed in HEK cell membranes at 10 uM measured after 90 mins by microbeta scintillation counting method relative to control; settings: probe [3H]5-HT
[8] = target: 5-hydroxytryptamine receptor 2C (Homo sapiens, UniProt P28335); experiment: Displacement of [3H]-Mesulergine from recombinant human 5HT2C receptor expressed in HEK cell membranes measured after 90 mins by microbeta scintillation counting method
5HT5A receptor = 5HT5A receptor (Homo sapiens, UniProt P47898); experiment: Displacement of [3H]-LSD from recombinant human 5HT5A receptor stably expressed in Flp-In CHO cell membranes at 10 uM measured after 90 mins by microbeta scintillation counting method relative to control; settings: probe [3H]-LSD
[9] = target: 5-hydroxytryptamine receptor 2B (Homo sapiens, UniProt P41595); experiment: Displacement of [3H]-LSD from recombinant human 5HT2B receptor stably expressed in HEK cell membranes measured after 90 mins by microbeta scintillation counting method
muscarinic M2 receptor = muscarinic M2 receptor (Homo sapiens, UniProt P08172); experiment: Displacement of [3H]-QNB/[3H]-NMS from human muscarinic M2 receptor expressed in stable CHO cell membranes at 10 uM after 90 mins by microbeta scintillation counting method relative to control; settings: probe [3H]-QNB/[3H]-NMS
muscarinic M4 receptor = muscarinic M4 receptor (Homo sapiens, UniProt P08173); experiment: Displacement of [3H]-QNB/[3H]-NMS from human muscarinic M4 receptor expressed in stable CHO cell membranes at 10 uM after 90 mins by microbeta scintillation counting method relative to control; settings: probe [3H]-QNB/[3H]-NMS

muscarinic M2 receptor, sequence (P08172 whole entry): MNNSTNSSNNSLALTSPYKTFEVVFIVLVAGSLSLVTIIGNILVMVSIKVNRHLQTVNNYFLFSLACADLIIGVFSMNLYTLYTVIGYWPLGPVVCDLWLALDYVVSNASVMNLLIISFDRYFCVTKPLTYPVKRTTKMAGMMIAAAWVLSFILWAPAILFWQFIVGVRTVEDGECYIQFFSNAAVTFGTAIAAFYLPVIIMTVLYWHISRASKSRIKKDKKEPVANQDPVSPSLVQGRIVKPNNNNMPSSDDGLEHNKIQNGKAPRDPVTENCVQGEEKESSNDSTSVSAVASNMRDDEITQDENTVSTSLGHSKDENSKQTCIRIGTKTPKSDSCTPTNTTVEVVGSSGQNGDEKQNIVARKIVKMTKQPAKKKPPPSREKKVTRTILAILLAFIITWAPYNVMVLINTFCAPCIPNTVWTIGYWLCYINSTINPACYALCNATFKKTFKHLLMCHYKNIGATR
beta3 adrenergic receptor, sequence (P13945 whole entry): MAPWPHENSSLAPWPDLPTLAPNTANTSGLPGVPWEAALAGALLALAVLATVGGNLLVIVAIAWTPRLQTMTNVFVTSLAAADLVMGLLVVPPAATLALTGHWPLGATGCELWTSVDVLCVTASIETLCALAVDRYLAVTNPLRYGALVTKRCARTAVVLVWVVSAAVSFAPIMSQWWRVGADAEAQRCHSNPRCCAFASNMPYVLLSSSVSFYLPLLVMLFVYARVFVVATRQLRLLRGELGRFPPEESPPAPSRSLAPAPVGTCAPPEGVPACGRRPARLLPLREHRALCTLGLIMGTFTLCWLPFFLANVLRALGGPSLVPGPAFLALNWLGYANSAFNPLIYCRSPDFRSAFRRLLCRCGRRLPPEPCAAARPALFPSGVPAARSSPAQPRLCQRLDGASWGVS
Sodium-dependent serotonin transporter, sequence (P31645 whole entry): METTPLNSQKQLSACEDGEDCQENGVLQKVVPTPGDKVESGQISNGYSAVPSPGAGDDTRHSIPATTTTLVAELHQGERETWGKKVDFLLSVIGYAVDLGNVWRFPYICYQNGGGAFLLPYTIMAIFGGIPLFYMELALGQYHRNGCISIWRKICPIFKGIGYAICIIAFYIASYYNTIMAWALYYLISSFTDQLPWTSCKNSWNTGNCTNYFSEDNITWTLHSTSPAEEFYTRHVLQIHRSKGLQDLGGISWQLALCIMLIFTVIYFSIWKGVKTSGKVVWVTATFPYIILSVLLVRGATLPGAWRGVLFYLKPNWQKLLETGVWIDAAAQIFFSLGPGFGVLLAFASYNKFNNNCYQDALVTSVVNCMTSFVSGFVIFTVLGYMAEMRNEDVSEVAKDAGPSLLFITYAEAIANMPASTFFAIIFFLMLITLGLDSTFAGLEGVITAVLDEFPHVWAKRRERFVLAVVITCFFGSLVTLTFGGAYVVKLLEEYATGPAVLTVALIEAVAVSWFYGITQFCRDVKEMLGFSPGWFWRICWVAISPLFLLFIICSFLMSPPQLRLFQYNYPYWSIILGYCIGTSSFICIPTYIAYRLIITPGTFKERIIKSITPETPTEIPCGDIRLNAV
5-hydroxytryptamine receptor 2C, sequence (P28335 whole entry): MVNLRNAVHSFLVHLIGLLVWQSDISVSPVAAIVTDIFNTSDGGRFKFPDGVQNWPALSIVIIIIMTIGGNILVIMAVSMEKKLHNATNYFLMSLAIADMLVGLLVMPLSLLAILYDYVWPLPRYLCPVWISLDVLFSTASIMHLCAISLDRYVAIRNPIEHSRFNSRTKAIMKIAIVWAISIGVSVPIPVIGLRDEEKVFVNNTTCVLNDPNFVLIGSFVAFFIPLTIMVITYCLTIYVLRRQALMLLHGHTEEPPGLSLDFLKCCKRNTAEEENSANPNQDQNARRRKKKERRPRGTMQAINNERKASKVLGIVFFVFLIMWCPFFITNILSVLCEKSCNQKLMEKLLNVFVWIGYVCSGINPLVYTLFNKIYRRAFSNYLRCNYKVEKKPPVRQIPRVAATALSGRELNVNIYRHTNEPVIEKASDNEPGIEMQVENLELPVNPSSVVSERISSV
5-hydroxytryptamine receptor 1A, sequence (P08908 whole entry): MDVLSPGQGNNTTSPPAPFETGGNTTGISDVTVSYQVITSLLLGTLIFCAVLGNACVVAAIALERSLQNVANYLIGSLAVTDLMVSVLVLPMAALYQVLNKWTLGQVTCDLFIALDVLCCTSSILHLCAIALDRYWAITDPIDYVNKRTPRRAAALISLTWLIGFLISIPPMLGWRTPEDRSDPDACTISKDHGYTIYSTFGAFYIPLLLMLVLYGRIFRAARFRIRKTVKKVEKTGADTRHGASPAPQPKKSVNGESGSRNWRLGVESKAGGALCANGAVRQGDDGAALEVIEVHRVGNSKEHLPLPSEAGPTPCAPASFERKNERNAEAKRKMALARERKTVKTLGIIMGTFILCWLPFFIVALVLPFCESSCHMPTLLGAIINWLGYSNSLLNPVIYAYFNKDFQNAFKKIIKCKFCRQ
Sodium-dependent noradrenaline transporter, sequence (P23975 whole entry): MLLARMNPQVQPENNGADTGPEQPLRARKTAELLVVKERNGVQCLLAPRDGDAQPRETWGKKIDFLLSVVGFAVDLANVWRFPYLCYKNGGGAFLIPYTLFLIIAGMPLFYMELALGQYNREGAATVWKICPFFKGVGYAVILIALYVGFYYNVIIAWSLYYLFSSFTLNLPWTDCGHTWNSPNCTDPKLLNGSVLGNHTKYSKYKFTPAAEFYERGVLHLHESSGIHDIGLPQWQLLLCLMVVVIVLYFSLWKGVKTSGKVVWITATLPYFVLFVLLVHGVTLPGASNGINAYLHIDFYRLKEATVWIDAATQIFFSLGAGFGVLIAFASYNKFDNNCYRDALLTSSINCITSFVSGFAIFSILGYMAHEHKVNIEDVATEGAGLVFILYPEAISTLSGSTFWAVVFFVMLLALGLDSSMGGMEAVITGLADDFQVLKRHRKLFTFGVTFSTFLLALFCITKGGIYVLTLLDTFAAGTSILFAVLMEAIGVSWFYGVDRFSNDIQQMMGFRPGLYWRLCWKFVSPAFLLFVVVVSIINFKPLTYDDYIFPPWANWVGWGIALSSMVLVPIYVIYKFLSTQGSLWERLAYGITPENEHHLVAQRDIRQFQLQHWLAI
sigma 2 receptor, sequence (Q5BJF2 whole entry): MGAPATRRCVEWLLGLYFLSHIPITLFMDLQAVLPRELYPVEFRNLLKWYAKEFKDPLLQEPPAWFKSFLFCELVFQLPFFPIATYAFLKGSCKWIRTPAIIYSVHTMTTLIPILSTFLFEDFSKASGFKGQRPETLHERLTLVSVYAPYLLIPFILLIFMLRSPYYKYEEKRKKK
5HT5A receptor, sequence (P47898 whole entry): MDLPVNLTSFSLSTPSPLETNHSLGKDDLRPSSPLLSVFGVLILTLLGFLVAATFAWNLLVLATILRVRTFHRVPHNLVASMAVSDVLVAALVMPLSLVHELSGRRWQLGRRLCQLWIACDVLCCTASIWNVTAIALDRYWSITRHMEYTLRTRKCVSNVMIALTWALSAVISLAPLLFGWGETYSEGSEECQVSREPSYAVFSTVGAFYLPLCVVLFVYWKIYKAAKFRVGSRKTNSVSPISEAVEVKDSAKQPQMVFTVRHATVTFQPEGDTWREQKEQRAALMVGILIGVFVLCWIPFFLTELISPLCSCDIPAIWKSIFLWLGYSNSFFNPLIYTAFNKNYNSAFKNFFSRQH
Mu-type opioid receptor, sequence (P35372 whole entry): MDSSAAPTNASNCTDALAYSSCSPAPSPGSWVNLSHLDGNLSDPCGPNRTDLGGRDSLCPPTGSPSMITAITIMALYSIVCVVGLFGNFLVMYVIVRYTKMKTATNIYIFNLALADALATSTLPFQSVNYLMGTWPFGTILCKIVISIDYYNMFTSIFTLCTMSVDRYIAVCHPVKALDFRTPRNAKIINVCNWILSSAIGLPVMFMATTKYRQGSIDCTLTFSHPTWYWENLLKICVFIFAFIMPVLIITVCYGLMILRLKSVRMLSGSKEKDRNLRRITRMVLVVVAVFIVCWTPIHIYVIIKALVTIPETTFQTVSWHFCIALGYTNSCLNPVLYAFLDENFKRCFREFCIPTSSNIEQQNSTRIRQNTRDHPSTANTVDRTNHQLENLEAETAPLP
Histamine H2 receptor, sequence (P25021 whole entry): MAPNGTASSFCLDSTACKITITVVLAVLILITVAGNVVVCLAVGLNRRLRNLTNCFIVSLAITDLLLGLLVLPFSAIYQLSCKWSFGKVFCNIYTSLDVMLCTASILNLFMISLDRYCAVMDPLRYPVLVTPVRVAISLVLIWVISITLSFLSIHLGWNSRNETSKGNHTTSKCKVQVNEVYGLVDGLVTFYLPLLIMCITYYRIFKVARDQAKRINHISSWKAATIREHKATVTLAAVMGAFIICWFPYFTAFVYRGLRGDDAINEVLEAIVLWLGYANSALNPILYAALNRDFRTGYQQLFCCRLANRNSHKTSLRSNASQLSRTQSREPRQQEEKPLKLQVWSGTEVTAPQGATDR
5-hydroxytryptamine receptor 2B, sequence (P41595 whole entry): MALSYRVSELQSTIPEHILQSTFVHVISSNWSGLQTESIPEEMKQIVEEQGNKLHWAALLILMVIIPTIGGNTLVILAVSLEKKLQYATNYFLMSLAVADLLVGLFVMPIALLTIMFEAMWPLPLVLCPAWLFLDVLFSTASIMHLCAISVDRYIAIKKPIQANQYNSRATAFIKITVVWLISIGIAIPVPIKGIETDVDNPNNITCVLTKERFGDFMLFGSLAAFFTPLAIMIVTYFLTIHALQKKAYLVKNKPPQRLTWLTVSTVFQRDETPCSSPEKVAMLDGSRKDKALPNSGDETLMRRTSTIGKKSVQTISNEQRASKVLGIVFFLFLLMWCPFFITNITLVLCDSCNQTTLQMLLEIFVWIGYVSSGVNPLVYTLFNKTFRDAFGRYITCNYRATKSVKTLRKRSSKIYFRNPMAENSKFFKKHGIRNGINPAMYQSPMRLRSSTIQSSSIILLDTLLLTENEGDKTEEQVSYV
5HT2B receptor, sequence (P41595 whole entry): as above

Row | SMILES | inhibition at […], 10 µM [1] | inhibition at […], 10 µM (5HT7A receptor) | inhibition at […], 10 µM (5HT2A receptor) | inhibition at […], 10 µM [2] | inhibition at […], 10 µM [4] | inhibition at […], 10 µM (dopamine D1 receptor) | inhibition at […], 10 µM [5] | Ki [7] | inhibition at […], 10 µM (5HT2B receptor) | inhibition at […], 10 µM (Histamine H2 receptor) | inhibition at […], 10 µM (sigma 2 receptor) | inhibition at […], 10 µM (dopamine D2 receptor) | inhibition at […], 10 µM (5HT1E receptor) | inhibition at […], 10 µM (5HT5A receptor) | inhibition at […], 10 µM (muscarinic M2 receptor) | inhibition at […], 10 µM (muscarinic M4 receptor) | other results
1 | CCCN(CC[C@]1(O)C[C@H](NC(=O)c2ccc3ccccc3c2)C1)[C@H]1CCc2nc(N)sc2C1 | < 50% | > 50% | > 50% | < 50% | < 50% | < 50% | > 50% | 0.708 µM | > 50% | > 50% | < 50% | > 50% | < 50% | < 50% | < 50% | > 50% | Ki ([3]; read-out: Ki): 32 nM; Ki ([6]; read-out: Ki): 436 nM; Ki (Mu-type opioid receptor; read-out: Ki): 745 nM; Ki ([8]; read-out: Ki): 762 nM; Ki ([9]; read-out: Ki): 1180 nM
2 | CCCN[C@H]1CCc2nc(N)sc2C1 [PRAMIPEXOLE] | > 50% | > 50% | < 50% | > 50% | < 50% | > 50% | < 50% | 6.51 µM | < 50% | > 50% | < 50% | > 50% | > 50% | > 50% | > 50% | < 50% | Ki [3]: Not Active; Ki [6]: Not Active; Ki (Mu-type opioid receptor): Not Active; Ki [8]: Not Active; Ki [9]: Not Active
